Test results taken from patent US20110218515A1, “Methods for Treating Acute Myocardial Infarctions and Associated Disorders” (The Regents of the University of California, priority 2009, published 2011).

System: ischemia-reperfusion rat model
Experiment: Optical mapping, programmed stimulation and VT inducibility of excised hearts 5 wks after MI
Assay type: in vivo, Sprague-Dawley rats
Conditions: for conduction heterogeneity vs control: all tested cycle lengths; for rise times of border zones vs control: significant at lowest PCL
Experimental: After baseline echocardiography, thirty male Sprague-Dawley rats, ages 6-10 weeks, underwent myocardial infarction using an ischemia-reperfusion model. Briefly, rats were anesthetized using inhaled isoflurane (5% induction, 2.5% maintenance, O2 output 1 L/min) and positioned supine on an electrically warmed animal surgery platform. Rats were intubated using a 16-gauge i.v. catheter and then ventilated using a Harvard rodent respirator. After a left thoracotomy and pericardiotomy were performed, a 7-0 Ticron suture was introduced into the myocardium, using the left atrial appendage and right outflow tract as landmarks. The depth of entry was 2 mm, which was slightly greater than the level of the left coronary artery. Both suture ends were then threaded through a PE-90 polyethylene tube 6 in. in length to form a “snare loop” around the artery, closed by pulling on the free ends of the suture. […] The suture was then tightened to occlude the artery for 20 minutes and then removed to allow for reperfusion. The chest was then closed with 5-0 prolene suture, and the animal was allowed to recover. After one week and repeat echocardiography, rats were randomized to placebo rodent feed (control group, n=15) or rodent feed mixed with 1.2% pirfenidone (PFD) (treatment group, n=15) for four weeks. All experiments and data analyses were performed with the operator blinded to treatment group. Optical mapping is a technique to perform high-resolution electrophysiologic evaluation of the cardiac tissue. To summarize the procedure, ten thousand simultaneous optical action potentials were recorded with a 100×100 CMOS camera within a 19 mm×19 mm mapping field on the epicardium of the LV anterior wall. Using a 1000-W tungsten-halogen light source, fluorescence was excited with an excitation filter of 530 nm and transmitted with an emission long-pass filter of >630 nm. Fluorescent optical maps were acquired at 2000 Hz during programmed electrical stimulation. Optical mapping was performed 5 wks after MI. Rats were injected with heparin (500 U ip) 15 min before excision of the heart, and were then anesthetized with pentobarbital sodium (50 mg/kg ip). After adequate anesthesia, the heart was rapidly excised and arrested by immersion in cold cardioplegia solution. The aorta was cannulated and retrogradely perfused, at a rate of 6 mL/min, with 37° C. modified Tyrode solution containing (in mmol/L): 130 NaCl, 20.0 NaHCO3, 1.2 MgCl2, 4.0 KCl, 5.6 glucose, and 1.8 CaCl2, gassed with 95% 02/5% C02. Extraneous tissue was carefully removed from the heart. The cannulated heart was then placed in 37° C. Tyrode solution in a specialized temperature-controlled optical recording chamber (maintained at 37° C.) while ECG, perfusion rate, and temperature were measured continuously for the duration of the experiment. Before optical recordings, Tyrode solution containing voltage-sensitive dye PGH I (10 μL of 5 mM stock solution) was perfused through the preparation over a 5-min period. Once a cannulated heart was perfused with PGH I, it was placed in the optical chamber with its LV anterior wall pressed against the imaging window. […] During optical recordings, contractility was blocked with 15 mM butadione monoxime (BDM). Ventricular epicardium bipolar pacing, at a stimulus amplitude of 2× threshold, was performed on normal tissue near the infarct zone. Mapping was recorded during pacing drives of 250 ms to 90 ms (decremented by 10 ms), as well as during S1-S2 pacing using a basic cycle length (BCL) of 200 ms and maximum S2 of 150 ms and decremented by 10 ms. Programmed stimulation, with up to three extrastimuli, and burst pacing (from 90 ms to 60 ms) were used to assess arrhythmia inducibility. Inducibility was defined as the ability to provoke sustained (>30 s) ventricular tachycardia (VT) or ventricular fibrillation. Maps were also captured during programmed stimulation and with all episodes of arrhythmia. […]

Question: For `Cc1ccc(=O)n(-c2ccccc2)c1` [pirfenidone], which “fluorescence amplitude in the border zones vs control” value is on record?
Answer: trend toward higher amplitudes

Question: And the “decrease in VT susceptibility vs control” value (5 wks after MI)?
Answer: almost three-fold decrease

Question: And the “rate of VT induction” value (5 wks after MI, controls 73.3%, p=0.027)?
Answer: 28.6%

Question: And the “conduction velocities in the border zones vs control” value (all pacing cycle lengths, p<0.05)?
Answer: significantly faster

Question: What about the “conduction heterogeneity vs control” value (p=0.146) of the same compound?
Answer: trend toward lower conduction heterogeneity

Question: What about the “conduction heterogeneity vs control” value (p=0.146, listed as PFD) of the same compound?
Answer: trend toward higher conduction heterogeneity indices in control animals

Question: What about the “maximal rate of AP rise (dF/dt) of border zones vs control” value (trend at all PCLs) of the same compound?
Answer: faster than the rise of control border zones

Question: And the “rise times of border zones vs control” value (trend at all PCLs)?
Answer: shorter

Question: And the “rise times of border zones vs control” value (trend at all PCLs, listed as PFD)?
Answer: lower than those of control border zones
